According to patent US20110045101A1, “FUNGICIDAL SUBSTITUTED AZOLES” (E.I. Du Pont De Nemours and Company, priority 2009, published 2011):
Marks after values point to notes of the source that are not given here.

How the values were obtained:
Format in all cases: in vivo
Settings in all cases: 100 = 100% disease control
[1] = test system: Botrytis cinerea; assay: Test C: tomato Botrytis on tomato seedlings, sprayed the day before inoculation, visual disease rating
In short: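 Each compound is first taken up in acetone at 3% of the final volume and then brought to the desired ppm in a 50:50 acetone–water mix with 250 ppm surfactant (polyhydric alcohol esters). Tomato seedlings receive the suspension to run-off, normally at 200 ppm, occasionally 40 ppm.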

[2] = test system: Alternaria solani; assay: Test D: tomato early blight, sprayed the day before inoculation, visual disease rating
In short: (§1)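 Test rate was 200 ppm, sprayed to run-off and equal to 500 g/ha, or 40 ppm where marked. The compound was first taken up in acetone at 3% of final volume and suspended in acetone/purified water (50/50) containing 250 ppm Trem® 014.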

[3] = test system: Septoria nodorum; assay: Test F: wheat glume blotch on wheat seedlings, sprayed the day before inoculation, visual disease rating
In short: as §1

[4] = test system: Septoria tritici; assay: Test G: wheat leaf blotch on wheat seedlings, sprayed the day before inoculation, visual disease rating
In short: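 Spray to run-off, 200 ppm (≈500 g/ha; starred = 40 ppm), acetone/water 50/50 + 250 ppm Trem® 014. Spore inoculation +1 d. 24° C saturated 48 h → 20° C 19 d. Visual rating.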

[5] = test system: Puccinia recondita f. sp. tritici; assay: Test H: wheat leaf rust, test suspension sprayed after inoculation of wheat seedlings, visual disease rating
In short: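 Wheat seedlings inoculated with P. recondita spores, held 24 h saturated at 20 °C, then 2 days in growth chamber at 20 °C; compound suspension (acetone/water with Trem 014) sprayed to run-off afterwards. Rated visually; 200 ppm (≈500 g/ha) unless marked *, which denotes 40 ppm.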

[6] = test system: Puccinia recondita f. sp. tritici; assay: Test I: wheat leaf rust on wheat seedlings, sprayed the day before inoculation, visual disease rating
In short: as §1

[7] = test system: Erysiphe graminis f. sp. tritici; assay: Test J: wheat powdery mildew on wheat seedlings, sprayed the day before inoculation, visual disease rating
In short: as §1

[8] = 200 ppm, 0 = no control relative to controls
[9] = 40 ppm (marked *), 0 = no control

| SMILES | Test C disease control rating [1, 8] [%] | Test D disease control rating [2, 8] [%] | Test F disease control rating [3, 8] [%] | Test G disease control rating [4, 8] [%] | Test H disease control rating [5, 8] [%] | Test I disease control rating [6, 8] [%] | Test J disease control rating [7, 8] [%] | Test C disease control rating [1, 9] | Test D disease control rating [2, 9] | Test F disease control rating [3, 9] | Test G disease control rating [4, 9] | Test H disease control rating [5, 9] | Test I disease control rating [6, 9] | Test J disease control rating [7, 9] | also measured |
| --- | --- | --- | --- | --- | --- | --- | --- | --- | --- | --- | --- | --- | --- | --- | --- |
| COc1ccc(F)c(-c2c(Cl)ncn2-c2ccc(F)cc2)c1F [compound 299] | 99 | 99 | 90 | 97 | 0 | 99 | 99 |  |  |  |  |  |  |  |  |
| Cc1nc(Cl)c(-c2ccc(Cl)cc2)n1Cc1cccc(Cl)c1 [compound 295] |  |  |  |  |  |  |  |  |  |  |  |  |  |  | Test C disease control rating ([1]; 200 ppm, 0 = no control): 99%; Test D disease control rating ([2]; 200 ppm, 0 = no control): 0%; Test F disease control rating ([3]; 200 ppm, 0 = no control): 0%; Test G disease control rating ([4]; 200 ppm, 0 = no control): 94%; Test H disease control rating ([5]; 200 ppm, 0 = no control): 0%; Test I disease control rating ([6]; 200 ppm, 0 = no control): 80%; Test J disease control rating ([7]; 200 ppm, 0 = no control): 0% |
| COc1cc(OC)cc(-n2c(Cl)nc(C)c2-c2c(F)cc(OC)cc2F)c1 [Compound 694, 2-chloro-5-(2,6-difluoro-4-methoxyphenyl)-1-(3,5-dimethoxyphenyl)-4-methyl-1H-imidazole] |  |  |  |  |  |  |  |  |  |  |  |  |  |  | pest or weed control at 40 ppm ([1]; Botrytis cinerea, 120 h, 40 ppm (marked *)): 100%; pest or weed control at 40 ppm ([2]; Alternaria solani, 168 h, 40 ppm (marked *)): 100%; pest or weed control at 40 ppm ([3]; Parastagonospora nodorum, 264 h, 40 ppm (marked *)): 99%; pest or weed control at 40 ppm ([4]; Zymoseptoria tritici, 504 h, 40 ppm (marked *)): 98%; pest or weed control at 40 ppm ([5]; Puccinia recondita, 96 h, 40 ppm (marked *)): 0%; pest or weed control at 40 ppm ([6]; Puccinia recondita, 168 h, 40 ppm (marked *)): 99%; pest or weed control at 40 ppm ([7]; Blumeria graminis, 168 h, 40 ppm (marked *)): 98% |
| Cc1nc(C)n(-c2ccc(Cl)c(F)c2)c1-c1c(F)ccc(F)c1Cl [compound 489] |  |  |  |  |  |  |  |  |  |  |  |  |  |  | Test C disease control rating ([1]; 40 ppm (marked *)): 96* %; Test D disease control rating ([2]; 40 ppm (marked *)): 98* %; Test F disease control rating ([3]; 40 ppm (marked *)): 0* %; Test G disease control rating ([4]; 40 ppm (marked *)): 93* %; Test H disease control rating ([5]; 40 ppm (marked *)): 0* %; Test I disease control rating ([6]; 40 ppm (marked *)): 100* %; Test J disease control rating ([7]; 40 ppm (marked *)): 100* % |
| Fc1ccc(F)c(-c2c(Cl)nc(Cl)n2Cc2ccc(Cl)cc2)c1F [compound 285] |  |  |  |  |  |  |  |  |  |  |  |  |  |  | Test C disease control rating ([1]; 200 ppm, 0 = no control): 99%; Test D disease control rating ([2]; 200 ppm, 0 = no control): 85%; Test F disease control rating ([3]; 200 ppm, 0 = no control): 83%; Test G disease control rating ([4]; 200 ppm, 0 = no control): 94%; Test H disease control rating ([5]; 200 ppm, 0 = no control): 98%; Test I disease control rating ([6]; 200 ppm, 0 = no control): 100%; Test J disease control rating ([7]; 200 ppm, 0 = no control): 100% |
| Cc1nc(Cl)c(-c2c(F)cc(F)cc2F)n1-c1ccc(OC(F)(F)F)cc1 [compound 612] | 99 | 100 | 60 | 96 | 0 | 8 | 100 |  |  |  |  |  |  |  |  |
| Cc1nc(Cl)n(-c2ccc(Cl)c(F)c2)c1-c1ccnc(Br)c1 [compound 354] | 100 | 99 | 0 | 93 | 0 | 98 | 97 |  |  |  |  |  |  |  |  |
| Fc1cc(-c2c(CCl)nc(Cl)n2-c2ccc(Cl)c(F)c2)ccn1 [compound 322] |  |  |  |  |  |  |  | 62* % | 0* % | 0* % | 0* % | 63* % | 28* % | 0* % |  |
| Cc1nc(Cl)n(-c2ccc(F)cc2)c1-c1c(F)ccc(F)c1F [compound 413] |  |  |  |  |  |  |  | 100* % | 99* % | 0* % | 14* % | 9* % | 0* % | 0* % |  |
| Cn1c(-c2cnc(Cl)n2-c2ccc(Cl)cc2)nc(Cl)c1Br [compound 394] |  |  |  |  |  |  |  | 3* % | 0* % | 0* % | 28* % | 0* % | 45* % | 0* % |  |
